Experimental data reported in patent US7977330B2, “Salts and crystal modifications thereof” (Novartis AG, priority 2006, dated 2011).

Test: solubility in aqueous media
Type: physicochemical
Conditions: qualitative statement

Compound | solubility in aqueous media
O=C(Nc1ccccc1F)NC1N=C(c2ccccc2)c2ccccc2NC1=O (centres unmarked) [RSV604 free base, 1-(2-Fluoro-phenyl)-3-(2-oxo-5-phenyl-2,3-dihydro-1H-benzo[e][1,4]diazepin-3-yl)-urea] | low solubility
O.O=C(Nc1ccccc1F)NC1N=C(c2ccccc2)c2ccccc2NC1=O.O=S(=O)(O)c1ccccc1 (centres unmarked) [RSV604 Besylate Monohydrate Salt, 1-(2-Fluoro-phenyl)-3-(2-oxo-5-phenyl-2,3-dihydro-1H-benzo[e][1,4]diazepin-3-yl)-urea besylate monohydrate] | particularly good solubility properties
